Data published in patent US10813931B2, “Methods and compositions relating to the treatment of cancer” (THE BRIGHAM AND WOMEN'S HOSPITAL, INC., priority 2013, dated 2020).

Legend:
[1] = system: MDA-MB-468 (468) cell line; test: CD44/CD24 surface expression by FACS in 468 cells; type: cell-based, human
Procedure: MDA-MB-231, MDA-MB-468 were purchased from ATCC. For acute treatments, cells were plated at a density of 0.5-1×10^5 cells/ml and allowed to adhere for 24-48 hr. when cells reached ˜70% confluency they were treated with antitubulins at indicated concentrations for 4-24 hours and utilized for subsequent assays. To generate chemotherapy tolerant subset, cells were treated with indicated concentrations of chemotherapy (48). Following washes with PBS, adherent cells were trypsinized and re-plated at a density of 1.5-2×10^5 cells/ml and cultured in serum-containing medium. […]
Cells were cultured as indicated and fixed with 4% paraformaldehyde in PBS for 30 min at RT and blocked in 10% goat serum (v/v). Following PBS washes, cells were incubated with indicated antibodies for 60 minutes at room temperature or overnight at 4 C and analyzed by FACS (Accuri cyomteters Inc. Ann Arbor, Mich.). Cell cycle analyzed in propidium iodide solution following incubation in 70% Ethanol overnight at 4 C and following manufacturer protocol (Genscript USA Inc. Piscataway, N.J.). AnnexinV/PI was analyzed FACS following manufacturer protocol (BD, Ann Arbor Mich.). All FACS results were analyzed by FlowJo™ software following a rigorous doublet discrimination based on FSC:A vs. width as well as FSC:A vs. height (Tree Star Inc., Ashland Oreg.). […]

[2] = system: 4T-1 mouse mammary carcinoma; test: 4T-1 tumor growth in Balb/C mice; type: in vivo
Procedure: (§1) 4-6 week old Balb/C mice (Charles River, Cambridge Mass.) were inoculated with 10^6 4 T-1 mouse mammary carcinoma cells in the left flank (Charles River, Cambridge Mass.). Mice identified with tumors were treated with docetaxel (DTX) or vehicle twice at 72 hour intervals at 10 mg/kg i.v. or 15 mg/kg i.p. and subsequently treated with dasatinib i.p. or nanoparticles i.v. 72 hours following the final DTX dose. Tumors were harvested at indicated time points and evaluated for protein phosphorylation and expression. Experimental detail provided in supplemental data.
(§2) 1 million 4T-1 mouse mammary carcinoma cells suspended in 100 µL PBS were injected per left flank of 5-6 week old Balb/C (Charles River, Wilmington Mass.). DTX was dissolved in pure Ethanol at a concentration of 50 mg/ml mixed 1:1 with Polysorbate 80 (Tween 80) and brought to a final working concentration with 5% glucose in PBS. Once Tumors became palpable (˜100 mm^3), DTX or vehicle treatments were administered at 100 μL volumes. Dasatinib was dissolved in DMSO to working concentration and delivered as 50 μL injections on indicated days, 50 µL DMSO used as a control in these studies. Tumor volumes were measured by a third party unaware of treatment conditions using digital calipers (Starlett, Athol, Mass.), volumes were assessed by the following formula: (Width×Width×length)/2 and expressed as relative volume increase from day 1. Tumor homogenate was prepared by homogenization of equal weight tissue sections incubated in 3×RIPA buffer containing 2× protease/phosphatase inhibitor cocktail (Thermo Fisher, Waltham, Mass.).

[3] = system: CD44, Src (Y527), PRAS40 T246, Hck; test: 4T-1 tumor tissue western blot / IHC of CD44 and kinase phosphorylation; type: in vivo, mouse; details: diminished by day 19
Procedure: as §1, §2
Cells were generated as described above and plated in 4 chamber glass slides (BD Biosciences, San Jose Calif.) at a concentration of 100,000 cells/ml. Following treatments, cells were washed in PBS and fixed in 4% Paraformaldehyde for 30 minutes. […] Blocking was performed in 10% (v/v) Goat serum in PBS. The cells were labeled with the indicated primary antibodies at 1:100 and tagged with FITC or unconjugated followed by a secondary antibody conjugated with Alexa Fluor 488 or Alexa Fluor 594 (Invitrogen Carlsbad Calif.) at 1:250 were added 24 hours later and incubated for 90 minutes at room temperature in blocking buffer and masked with DAPI-containing hard-set mounting medium (Vector Laboratories, Burlingame Calif.). Bright field and fluorescent images were obtained using three channels on a NIKON Eclipse TI-U microscope with a 20×ELDW, 10× or 40× Plan-Apo objective lens (Nikon, Melville N.Y.). […] For histological quantification, IHC were scored blindly by a clinical pathologist based on number of cells which stain for the target protein (1-4) and multiplied by the intensity of staining as a subjective percentile. This value was expressed as IHC score to quantify the level of staining. […]

Q: With CC(=O)O[C@@]12CO[C@@H]1C[C@H](O)[C@@]1(C)C(=O)[C@H](O)C3=C(C)[C@@H](OC(=O)[C@H](O)[C@@H](NC(=O)OC(C)(C)C)c4ccccc4)C[C@@](O)([C@@H](OC(=O)c4ccccc4)[C@H]21)C3(C)C [DTX, docetaxel] as the molecule, how does the CD44/CD24 signature ([1]; 10 nM docetaxel, 24 h) read?
A: induced a CD44^HI, CD24^+/HI signature

Q: And the CD44 surface expression ([1]; 24 hour incubation, 10 nM DTX)?
A: induction of CD44 was observed

Q: And the “tumor re-emergence after treatment” value ([2]; DTX days 2 and 5, day 19)?
A: re-emerged robustly by day 19

Q: What about the “tumor growth (relative tumor volume)” value ([2]; DTX days 2 and 5 at 10 mg/kg i.v. and 15 mg/kg i.p., vs vehicle) of the same molecule?
A: inhibited tumor growth

Q: And the “Hck phosphorylation in tumor (IHC)” value ([3]; DTX day 9 vs control)?
A: markedly enhanced

Q: And the “activated PRAS40 T246 in tumor” value ([3]; DTX day 9 vs control)?
A: enhancement

Q: What about the “inhibitory residue of Src (Y527) phosphorylation in tumor” value ([3]; DTX day 9 vs control) of the same molecule?
A: Reduction

Q: What about the “CD44 expression in tumor tissue” value ([3]; DTX-treated day 9 vs control day 9) of the same molecule?
A: significantly enhanced CD44 expression
